Type in all cases: in vivo
In one assay the test system is DSS-induced colitis mice. Kind of assay: DSS-induced colitis in mice, DAI score. To be noted: 5% DSS orally 7 days, OxA 0.22 μmoles/kg daily intraperitoneal, scale 0 to 4. From the text: FIG. 1. Orexin A ameliorates the DAI (weight and colitis score) of DSS-induced colitis mice. Mice were orally treated with 5% DSS for 7 days in the presence or in the absence of daily intraperitoneal injection of OxA (0.22 μmoles/kg). DAI score including weight loss, severity of diarrhea, the presence of blood in the stool, inflammation and edema was estimated using a scale ranging from 0 (no symptoms) to 4 (severe colitis). DSS, dextran sulfate sodium; WT, wild type mice.
Orexin A ameliorates the DAI (weight and colitis score) of DSS-induced colitis mice. As shown in FIG. 1 when DSS-induced colitis mice were treated with OxA, the DAI score was ameliorated (about of 1.5). […] Therefore, orexin A presents potent intrinsic anti-inflammatory properties, capable of modulating the Th/Treg homeostasis during an auto-immune response as aggressive as in a chronic EAE model.

Assay [1] deals with chronic pancreatitis mice model induced by cerulein. In words: Cerulein-induced chronic pancreatitis mice model. To be noted: OxA 1.40 μmol/Kg 2 ip injections/week. From the text: FIG. 7. Pancreatic lymphocyte infiltration determined by immunostaining of CD45+ cells. Values were expressed as percentage of stained surface. **, p<0.01
FIG. 8. Amylase activity in blood samples of control mice, cerulein-induced mice and cerulein-induced mice treated with OxA. *, p<0.05; ***, p<0.001 and NS=non-significant.
We have investigated the effect of orexin A (OxA) on chronic pancreatitis mice model induced by supraphysiologic doses of cerulein (3 intraperitoneal injections/week at 100 μg/kg). […] In mice treated by OxA (2 intraperitoneal injections/week at 1.40 μmol/Kg) the lesions induced by cerulein improved. OxA-treated mice had lower number of acino-ductal metaplasia.

Another assay has as its system EAE mice spinal cord. Kind of assay: Spinal cord histopathology of EAE mice. To be noted: 30 days post-immunization, OxA 300 μg IP or RO, grading 0-4, vs PBS. The method, then:
FIG. 3. […] 30 days post-immunization, mice (from the PBS, OxA300 RO, and OxA300 IP groups of FIG. 2, panel C) were sacrificed and spinal cords were harvested, fixed overnight in 4% paraformaldehyde and stored in 70% ethanol. Spinal cords were then embedded in paraffin and cut in […] section. After haematoxylin/eosin (to distinguish cell infiltration) and luxol fast blue (to label myelin) staining, photography was performed at ×1.25 and ×10 magnifications for the spinal cord sections of PBS, OxA300 RO and OxA300 IP mice. […] Histopathology grading was as follows: 0-normal appearance, 1—some infiltrated cells and low demyelination, 2—2 or 3 infiltrated areas and low demyelination, 3—numerous infiltrated areas and strong demyelination, 4—important cell infiltration throughout the tissue with strong demyelination. *P<0.05 (nonparametric t-test, compared to PBS group).

Another assay relates to regulatory T cell (Treg). In words: Regulatory T cells in draining lymph nodes of EAE mice, flow cytometry. Particulars: day 30 post-immunization, OxA 300 μg IP or RO, vs PBS. The method, then:
FIG. 5. […] On day 30 post-immunization, draining lymph nodes were harvested from the naïve, PBS, OxA300 RO, and OxA300 IP groups (FIG. 2, panel C). Assessment by flow cytometry was performed by using the mouse regulatory T cell staining kit: lymph node Tregs were defined as CD4^+CD25^+Foxp3^+ cells and proliferative Tregs as CD4^+CD25^+Foxp3^+Ki67^+ cells.
Histograms represent the mean of the percentage (left) and the total number (right) of Tregs and proliferative Tregs (Ki67^+Tregs) for each group. Bars represent the mean+/−SEM of 5 individual mice. *P<0.05 (non parametric t-test, compared to PBS group).

Assay [2] deals with EAE mice (C57BL/6 wild-type). Kind of assay: EAE (MOG35-55 induced) clinical score in mice. Particulars: orexin A 100 or 300 μg per mouse for 5 days, IP or retro-orbital, before onset or at moderate EAE score, scale 0-5. The method, then:
FIG. 2. […] EAE was induced with 100 μg of MOG35-55 (Myelin Oligodendrocyte Glycoprotein 35-55) as previously described (Proc Natl Acad Sci USA. 106(6):2012-7, 2009) to 9 week old female C57BL/6 wild-type (WT) mice (n=10/group). Panels show clinical signs of EAE scored daily in a blinded fashion for over 30 days on a scale of 0-5 as follows: 0, no detectable clinical signs, 1, waddling gait with limp tail, 2, ataxia with full paralysis of one limb, 3, full paralysis of two limbs, 4, full paralysis of two limbs with important weight loss (>20% of initial weight) and 5, moribund or dead. Then, mice were given:
Panel A, intraperitoneally (IP) either PBS (group PBS IP), 100 μg of orexin A per mouse for 5 days on day 3 (=before the onset, group BOxA100 IP) or at a moderate EAE score (=1.5-2 for group OxA100 IP).
Panel B, intraperitoneally either PBS (group PBS), 100 μg (group OxA100 IP) or 300 μg (group OxA300 IP) of orexin A per mouse for 5 days at a moderate EAE score (=1.5-2).
Panel C, either PBS (group PBS), 300 μg of orexin A per mouse intraperitoneally (group OxA300 IP) or retro-orbitally (RO) (group OxA300 RO) for 5 days at a moderate EAE score (=1.5-2).
The EAE score is shown as mean+/−SEM. *P<0.05 (nonparametric t-test, compared to PBS group).
Orexin A ameliorates the DAI (weight and colitis score) of DSS-induced colitis mice. […]

Assay [3] has as its system IFNγ and IL-17 gene expression. Kind of assay: Th1 (IFNγ) and Th17 (IL-17) cytokine gene expression in brain of EAE mice, RT-qPCR. To be noted: 30 days after EAE induction, OxA 300 μg IP or RO, vs PBS. The method, then: FIG. 4. […] It was determined 30 days after EAE induction of PBS, OxA300 RO, and OxA300 IP mice (from FIG. 2, panel C) by real time RT-qPCR as previously described (Proc Natl Acad Sci USA. 106(6):2012-7, 2009). *P<0.05 (nonparametric t-test, compared to PBS group).

As for “Orexin A: neuropeptide, endogenous ligand of OX1R and OX2R; SEQ ID NO:2 peplpdccrqk tcscrlyell hgagnhaagi ltlx”, the “DAI score (weight and colitis score)” value was “ameliorates” with DSS-induced colitis mice and ~1.5 with DSS-induced colitis mice (listed as OxA). In addition, the “lesions induced by cerulein (pancreas histology)” value in assay [1] (3 weeks cerulein 100 μg/kg 3 ip injections/week) was “improved”. Also, the “amylase activity in blood samples” value in assay [1] (cerulein mice) is “significantly reduced”. Also, the “number of acino-ductal metaplasia” value in assay [1] (cerulein mice) is on record as “lower number”. For the same substance, the “pancreatic lymphocyte infiltration (anti-CD45 immunohistochemistry)” value in assay [1] (cerulein mice, quantitative imaging analysis, 18% in OxA-untreated mice) is given as 6 % of the pancreatic surface. Besides, the “pancreatic fibrosis on Picrosirius staining” value in assay [1] (cerulein mice, quantitative imaging analysis, 40% in OxA-untreated mice) was 12 % of the pancreatic surface. Moreover, the “histopathological EAE score” value in the assay with EAE mice spinal cord was “significantly decreases”; in the assay on EAE mice spinal cord (listed as orexin A) it was “drastic reduction”. Besides, the “regulatory T cell (Treg) proportion” value is “increased” with regulatory T cell (Treg) and “increase” with regulatory T cell (Treg) (listed as orexin A). The figures for the “clinical features of EAE (EAE score)” value in assay [2] and in assay [2] (listed as orexin A) were “dramatically alleviate” and “significantly ameliorated”, respectively. For the same substance, the “Th1/Th17 pro-inflammatory responses (IFNγ, IL-17 gene expression) in CNS tissues” value in assay [3] is recorded as “efficiently suppresses”; in assay [3] (listed as orexin A), “drastic reduction”.

Values taken from patent US20180305458A1, “METHODS AND PHARMACEUTICAL COMPOSITIONS FOR THE TREATMENT OF AUTOIMMUNE INFLAMMATORY DISEASES” (INSERM (INSTITUT NATIONAL DE LA SANTÉ ET DE LA RECHERCHE …, priority 2015, published 2018).
